Results on 1 molecule are retold here after patent US12358960B2, “Selective targeting of ubiquitin- and ubiquitin-like E1-activating enzymes by structurally-stabilized peptides” (Dana-Farber Cancer Institute, Inc., priority 2019, dated 2025).

Bridge positions count the residues as written; N and C are the ends. Square brackets hold non-standard residues; d marks the D form. Peptide text beside a SMILES is read from it. R8 = C=CCCCCCC[C@@](C)(N)C(=O)O; S5 = C=CCCC[C@](C)(N)C(=O)O; Nle = CCCC[C@H](N)C(=O)O

In data set [1] the target is T1, UBA1 (Homo sapiens, UniProt P22314).
T1 sequence (P22314 1-1058): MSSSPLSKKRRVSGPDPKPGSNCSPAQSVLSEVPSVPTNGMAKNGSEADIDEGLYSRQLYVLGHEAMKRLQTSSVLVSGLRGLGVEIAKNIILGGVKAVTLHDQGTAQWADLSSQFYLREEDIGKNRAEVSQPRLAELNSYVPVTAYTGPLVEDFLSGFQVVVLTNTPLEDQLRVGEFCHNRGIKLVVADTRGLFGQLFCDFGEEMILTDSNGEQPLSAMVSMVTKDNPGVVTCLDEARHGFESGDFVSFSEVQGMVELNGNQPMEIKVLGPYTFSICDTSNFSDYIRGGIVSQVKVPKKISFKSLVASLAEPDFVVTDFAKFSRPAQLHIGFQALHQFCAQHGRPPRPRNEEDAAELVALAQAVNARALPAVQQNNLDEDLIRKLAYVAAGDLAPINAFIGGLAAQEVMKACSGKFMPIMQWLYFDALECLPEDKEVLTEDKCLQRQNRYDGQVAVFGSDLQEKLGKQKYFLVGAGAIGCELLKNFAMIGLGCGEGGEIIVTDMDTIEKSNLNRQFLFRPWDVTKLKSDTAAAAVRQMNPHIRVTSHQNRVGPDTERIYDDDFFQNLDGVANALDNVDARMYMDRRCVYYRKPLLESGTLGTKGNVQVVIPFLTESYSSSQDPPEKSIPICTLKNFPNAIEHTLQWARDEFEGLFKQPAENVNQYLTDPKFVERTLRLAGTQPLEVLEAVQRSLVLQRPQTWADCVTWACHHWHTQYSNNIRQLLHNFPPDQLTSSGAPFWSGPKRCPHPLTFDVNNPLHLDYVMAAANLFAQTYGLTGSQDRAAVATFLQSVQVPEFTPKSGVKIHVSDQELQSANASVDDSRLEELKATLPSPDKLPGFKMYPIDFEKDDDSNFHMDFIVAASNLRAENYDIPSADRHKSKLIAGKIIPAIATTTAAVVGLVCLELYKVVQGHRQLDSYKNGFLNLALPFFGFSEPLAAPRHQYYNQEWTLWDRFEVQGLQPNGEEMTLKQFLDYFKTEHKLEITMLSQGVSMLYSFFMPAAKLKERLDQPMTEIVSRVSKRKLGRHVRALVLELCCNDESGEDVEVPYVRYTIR
The data set is described as follows: Streptavidin-biotin pull-down with recombinant protein. Type of data set: binding. The settings on record: biotinylated peptide, silver stain. The protocol:
Streptavidin-biotin pull-down assays: For recombinant protein pull-downs, 10 pmol recombinant human UBA1 was incubated with 5 nmol C-terminally biotinylated SAH-UBE2A or DMSO vehicle control in a total volume of 1 mL binding buffer (50 mM NaCl, 20 mM HEPES, pH 7.4, 5 mM DTT) for 1.5 hours at 4° C. 30 μL of pre-equilibrated streptavidin agarose beads were then added and incubated for an additional 1.5 hours at 4° C. The beads were pelleted by centrifugation and washed three times with NP-40 buffer (20 mM HEPES, pH 7.4, 50 mM NaCl, 5 mM DTT, 0.5% [v/v] NP-40) before eluting the protein sample from the beads by heating at 70° C. for 10 min in 3×SDS loading buffer. Samples were subjected to electrophoresis and silver staining (Pierce 24612). […] Proteins were separated by SDS-PAGE gel electrophoresis and detected by western blot against UBE1 (Abcam ab34711). […] Conjugation of ubiquitin to E2 by E1 is monitored by conversion of free E2 (17 kDa) to E2˜ubiquitin conjugate (26 kDa). Quantitation of percent inhibition was calculated from densitometry of silver stain images. Error bars represent ±1 SEM calculated from three independent experiments.

Data set [2] addresses T1, UBA1. Nature of the data set: UBA1~Ub thioester adduct formation (thioester transfer assay gel resolving UBA1 from UBA1~Ub). The class given is biochemical. The settings on record: all concentrations of peptide.
A short description of data set [3]: Circular dichroism, α-helicity. Type of data set: physicochemical. The following applies: in solution. The protocol: Assays to Determine α-Helicity: Compounds are dissolved in an aqueous solution (e.g., 5 mM potassium phosphate solution at pH 7, or distilled H2O, to concentrations of 25-50 μM). Circular dichroism (CD) spectra are obtained on a spectropolarimeter (e.g., Jasco J-710, Aviv) using standard measurement parameters (e.g., temperature, 20° C.; wavelength, 190-260 nm; step resolution, 0.5 nm; speed, 20 nm/sec; accumulations, 10; response, 1 sec; bandwidth, 1 nm; path length, 0.1 cm). The α-helical content of each peptide is calculated by dividing the mean residue ellipticity by the reported value for a model helical decapeptide (Yang et al., Methods Enzymol. 130:208 (1986)).
Circular Dichroism: Acetylated peptides were dissolved in 10% (vol/vol) acetonitrile in water for circular dichroism analyses, performed on an Aviv Biomedical spectrophotometer, as reported (see Bird et. al., Methods in Enzymol., 446:369-386 (2008)).
(In general: Circular dichroism is the unequal absorption of left and right circularly polarised light.)

Take `CCCC[C@H](NC(C)=O)C(=O)N[C@@H](CO)C(=O)N[C@H](C(=O)N1CCC[C@H]1C(=O)N[C@]1(C)CCCCCCC=CCCC[C@@](C)(C(=O)N[C@@H](Cc2ccccc2)C(=O)N[C@@H](CCCCN)C(=O)N[C@@H](CCCNC(=N)N)C(=O)N[C@@H](CC(C)C)C(=O)N[C@@H](CCC(N)=O)C(N)=O)NC(=O)[C@H](CCCNC(=N)N)NC(=O)[C@H](CCCC)NC(=O)[C@H](CC(C)C)NC(=O)[C@H](CCCNC(=N)N)NC(=O)[C@H](CCCNC(=N)N)NC(=O)[C@H](CCCNC(=N)N)NC1=O)[C@@H](C)O` [SAH-UBE2A-11, BSTPX1RRRLBRX2FKRLQ] (Ac-[Nle]STP[R8]RRRL[Nle]R[S5]FKRLQ-NH2; staple 5-12): the “direct binding to recombinant UBA1, streptavidin capture” value at UBA1 [1] is “direct binding of SAH-UBE2A to UBA1”. Moreover, the “ability of UBA1 to form covalent UBA1~Ub thioester adduct” value on UBA1 [2] is “no effect on the ability of UBA1 to covalently charge itself with ubiquitin”; at UBA1 [2] (listed as SAH-UBE2A) it was “no effect on the ability of UBA1 to form a covalent UBA1˜Ub thioester adduct”. Besides, the “helicity / helical content” value in data set [3] came to 54%.
